# Measurements as given in patent publication US20250215029A1 (Recludix Pharma, Inc., priority 2022, published 2025).
# Read-outs that look alike come from different tables or passages of the source.
# How the values were obtained:
# [1] = molecular target: T1, Recombinant STAT6 protein (STAT6 (W123-T658)) (Homo sapiens, UniProt P42226); assay: STAT6 Fluorescence Polarization (FP) Assay; format: binding; settings: probe 5-FAM-Ap[…]-NH2 2 nM, 45-minute incubation
# T1 construct: Recombinant STAT6 protein (STAT6 (W123-T658))
# T1 sequence (P42226 123-658): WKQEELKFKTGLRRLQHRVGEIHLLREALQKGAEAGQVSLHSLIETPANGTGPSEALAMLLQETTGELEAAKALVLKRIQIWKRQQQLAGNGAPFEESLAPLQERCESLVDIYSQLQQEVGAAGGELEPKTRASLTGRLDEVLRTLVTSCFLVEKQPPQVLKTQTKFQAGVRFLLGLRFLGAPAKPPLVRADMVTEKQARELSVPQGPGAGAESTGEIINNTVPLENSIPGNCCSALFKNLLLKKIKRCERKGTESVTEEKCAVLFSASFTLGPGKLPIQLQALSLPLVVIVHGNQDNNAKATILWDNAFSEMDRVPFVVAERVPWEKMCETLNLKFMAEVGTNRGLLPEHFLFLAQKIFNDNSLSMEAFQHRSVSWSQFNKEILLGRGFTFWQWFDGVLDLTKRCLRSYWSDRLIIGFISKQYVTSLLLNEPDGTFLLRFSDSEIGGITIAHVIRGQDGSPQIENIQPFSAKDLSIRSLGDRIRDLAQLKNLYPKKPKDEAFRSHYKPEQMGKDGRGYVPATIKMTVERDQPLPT
# Method: STAT6 Fluorescence Polarization (FP) Assay
# An FP assay was developed to determine IC50 values for test substances. Recombinant STAT6 protein (STAT6 (W123-T658)) at 250 nM was combined with a fluorescently labeled, phosphotyrosine peptide probe (5-FAM-Ap[…]-NH2) at 2 nM in FP buffer (10 mM HEPES pH 7.4, 50 mM NaCl, 1 mM EDTA, 0.05% Tween 20, 2 mM DTT). 50 μL of STAT6-probe mixture was added to serial diluted compounds in black, 96-well plates (Greiner BioOne 655076) to a final concentration of 1% DMSO. Reaction components were mixed, and FP was measured after 45-minute incubation at room temperature using a Tecan Spark multimode plate reader. FP signal (mP) was plotted against the log concentration of the test substances and IC50 values were calculated by nonlinear regression analysis using GraphPad Prism software. For STAT6 FP assay, A=≤300 nM; B=>300-3000 nM; C=>3-30 μM; and D=>30 μM.
# [2] = molecular target: T2, Recombinant STAT3 protein (STAT3 (G127-I722)) (Homo sapiens, UniProt P40763); assay: STAT3 Fluorescence Polarization (FP) Assay; format: binding; settings: probe 5-FAM-GpYLPQTV-NH2 2 nM, 45-minute incubation
# T2 construct: Recombinant STAT3 protein (STAT3 (G127-I722))
# T2 sequence (P40763 127-722): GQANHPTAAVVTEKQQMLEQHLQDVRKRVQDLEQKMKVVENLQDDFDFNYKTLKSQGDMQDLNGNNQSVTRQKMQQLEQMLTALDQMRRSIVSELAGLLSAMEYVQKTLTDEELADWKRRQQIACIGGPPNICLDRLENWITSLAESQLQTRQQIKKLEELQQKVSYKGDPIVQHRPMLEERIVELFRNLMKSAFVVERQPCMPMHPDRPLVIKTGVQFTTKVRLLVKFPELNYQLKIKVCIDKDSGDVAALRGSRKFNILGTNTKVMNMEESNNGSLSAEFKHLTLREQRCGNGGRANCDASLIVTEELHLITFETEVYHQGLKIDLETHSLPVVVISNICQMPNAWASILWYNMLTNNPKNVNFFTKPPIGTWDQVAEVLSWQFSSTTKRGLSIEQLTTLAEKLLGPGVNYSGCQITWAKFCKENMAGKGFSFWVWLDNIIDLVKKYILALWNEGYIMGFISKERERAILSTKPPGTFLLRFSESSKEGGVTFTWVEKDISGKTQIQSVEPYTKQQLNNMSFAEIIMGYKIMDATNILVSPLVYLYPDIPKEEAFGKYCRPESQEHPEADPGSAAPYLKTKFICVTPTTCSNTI
# Method: STAT3 Fluorescence Polarization (FP) Assay
# An FP assay was developed to determine IC50 values for test substances. Recombinant STAT3 protein (STAT3 (G127-I722)) at 25 nM was combined with a fluorescently labeled, phosphotyrosine peptide probe (5-FAM-GpYLPQTV-NH2) at 2 nM in FP buffer (10 mM HEPES pH 7.4, 50 mM NaCl, 1 mM EDTA, 0.05% Tween 20.2 mM DTT). 50 μL of STAT3-probe mixture was added to serial diluted compounds in black, 96-well plates (Greiner BioOne 655076) to a final concentration of 1% DMSO. Reaction components were mixed, and FP was measured after 45-minute incubation at room temperature using a Tecan Spark multimode plate reader. FP signal (mP) was plotted against the log concentration of the test substances and IC50 values were calculated by nonlinear regression analysis using GraphPad Prism software. For STAT3 FP assay, A=≤100 nM; B=>100-1000 nM; C=>1-10 μM; and D=>10 μM.
# [3] = STAT6 (W123-T658) 250 nM, read-out: STAT6 (FP assay IC50 class)
# [4] = STAT3 (G127-I722) 25 nM, read-out: STAT3 (FP assay IC50 class)
# [5] = STAT6 250 nM, read-out: STAT6 (FP assay IC50)
# [6] = STAT3 25 nM, read-out: STAT3 (FP assay IC50)
SMILES,"IC50 [1, 3]","IC50 [2, 4]","IC50 [1, 5]","IC50 [2, 6]"
"O=C(N[C@H]1CCC[C@H]2CC[C@@H](C(=O)N3CC(n4cc(F)cn4)C3)N2C1=O)c1cc2cc(C(F)P(=O)(O)O)ccc2s1 (stereo partly drawn) [Compound 614, (fluoro(2-(((3S,6S,9aS)-3-(3-(4-fluoro-1H-pyrazol-1-yl)azetidine-1-carbonyl)-5-oxooctahydro-1H-pyrrolo[1,2-a]azepin-6-yl)carbamoyl)benzo [b]thiophen-5-yl)methyl) phosphonic acid]",3 to 30 µM,0.1 to 1 µM,–,–
"Cn1ccc(=O)c(C2CN(C(=O)[C@@H]3CC[C@@H]4CCC[C@H](NC(=O)c5cc6cc(C(F)P(=O)(O)O)ccc6s5)C(=O)N43)C2)c1 (stereo partly drawn) [Compound 617, (fluoro(2-(((3S,6S,9aS)-3-(3-(1-methyl-4-oxo-1,4-dihydropyridin-3-yl)azetidine-1-carbonyl)-5-oxooctahydro-1H-pyrrolo[1,2-a]azepin-6-yl)carbamoyl)benzo [b]thiophen-5-yl)methyl) phosphonic acid]",3 to 30 µM,0.1 to 1 µM,–,–
"CC(C)C1(c2ccccc2)CN(C(=O)[C@@H]2CC[C@@H]3CCC[C@H](NC(=O)c4cc5cc(C(F)(F)P(=O)(O)O)ccc5s4)C(=O)N32)C1 [Compound 784, (difluoro(2-(((3S,6S,9aS)-3-(3-isopropyl-3-phenylazetidine-1-carbonyl)-5-oxooctahydro-1H-pyrrolo[1,2-a]azepin-6-yl)carbamoyl)benzo [b]thiophen-5-yl)methyl) phosphonic acid]",3 to 30 µM,0.1 to 1 µM,–,–
"CCc1ccncc1C1CN(C(=O)[C@@H]2CC[C@@H]3CCC[C@H](NC(=O)c4cc5cc(C(F)P(=O)(O)O)ccc5s4)C(=O)N32)C1 (stereo partly drawn) [Compound 205, ((2-(((3S,6S,9aS)-3-(3-(4-ethylpyridin-3-yl)azetidine-1-carbonyl)-5-oxooctahydro-1H-pyrrolo[1,2-a]azepin-6-yl)carbamoyl)benzo[b]thiophen-5-yl)fluoromethyl)phosphonic acid]",3 to 30 µM,< 0.1 µM,–,–
"Cc1cccnc1C1CN(C(=O)[C@@H]2CC[C@@H]3CCC[C@H](NC(=O)c4cc5cc(C(F)(F)P(=O)(O)O)ccc5s4)C(=O)N32)C1 [Compound 658, (difluoro(2-(((3S,6S,9aS)-3-(3-(3-methylpyridin-2-yl)azetidine-1-carbonyl)-5-oxooctahydro-1H-pyrrolo[1,2-a]azepin-6-yl)carbamoyl)benzo [b]thiophen-5-yl)methyl) phosphonic acid]",0.3 to 3 µM,0.1 to 1 µM,–,–
"CC(C)Oc1ccncc1C1CN(C(=O)[C@@H]2CC[C@@H]3CCC[C@H](NC(=O)c4cc5cc(C(F)P(=O)(O)O)ccc5s4)C(=O)N32)C1 (stereo partly drawn) [Compound 612, (fluoro(2-(((3S,6S,9aS)-3-(3-(4-isopropoxypyridin-3-yl)azetidine-1-carbonyl)-5-oxooctahydro-1H-pyrrolo[1,2-a]azepin-6-yl)carbamoyl)benzo [b]thiophen-5-yl)methyl) phosphonic acid]",3 to 30 µM,< 0.1 µM,–,–
"O=C(N[C@H]1CCCC[C@H]2CCC[C@@H](C(=O)N3CC(n4ccnc4)C3)N2C1=O)c1cc2cc(C(F)(F)P(=O)(O)O)ccc2s1 [Compound 62, ((2-(((4S,7S,11aS)-4-(3-(1H-imidazol-1-yl)azetidine-1-carbonyl)-6-oxodecahydro-2H-pyrido[1,2-a]azocin-7-yl)carbamoyl)benzo[b]thiophen-5-yl)difluoromethyl) phosphonic acid]",–,–,> 30 µM,> 10 µM
"Cn1cnc2cc(CNC(=O)[C@@H]3CC[C@@H]4CCC[C@H](NC(=O)c5cc6cc(C(F)(F)P(=O)(O)O)ccc6s5)C(=O)N43)cnc21 [Compound 1119, (difluoro(2-(((3S,6S,9aS)-3-(((3-methyl-3H-imidazo[4,5-b]pyridin-6-yl)methyl)carbamoyl)-5-oxooctahydro-1H-pyrrolo[1,2-a]azepin-6-yl)carbamoyl)benzo[b]thiophen-5-yl)methyl)phosphonic acid]",0.3 to 3 µM,0.1 to 1 µM,–,–
"CS(=O)(=O)CC1CN(C(=O)[C@@H]2CC[C@@H]3CCC[C@H](NC(=O)c4cc5cc(C(F)P(=O)(O)O)ccc5s4)C(=O)N32)C1 (stereo partly drawn) [Compound 627, (fluoro(2-(((3S,6S,9aS)-3-(3-((methylsulfonyl)methyl)azetidine-1-carbonyl)-5-oxooctahydro-1H-pyrrolo[1,2-a]azepin-6-yl)carbamoyl)benzo [b]thiophen-5-yl)methyl) phosphonic acid]",3 to 30 µM,< 0.1 µM,–,–
"O=C(N[C@H]1CCC[C@H]2CC[C@@H](C(=O)N3C(=O)N(c4cccnc4)C(=O)C34CC4)N2C1=O)c1cc2cc([C@H](F)P(=O)(O)O)ccc2s1 [Compound 915, ((R)-(2-(((3S,6S,9aS)-3-(5,7-dioxo-6-(pyridin-3-yl)-4,6-diazaspiro[2.4]heptane-4-carbonyl)-5-oxooctahydro-1H-pyrrolo[1,2-a]azepin-6-yl)carbamoyl)benzo [b]thiophen-5-yl)fluoromethyl) phosphonic acid]",≤ 0.3 µM,1 to 10 µM,–,–
"O=C(N[C@H]1CCC[C@H]2CC[C@@H](C(=O)N3CC(c4ccncc4F)C3)N2C1=O)c1cc2cc(C(F)P(=O)(O)O)ccc2s1 (stereo partly drawn) [Compound 610, (fluoro(2-(((3S,6S,9aS)-3-(3-(3-fluoropyridin-4-yl)azetidine-1-carbonyl)-5-oxooctahydro-1H-pyrrolo[1,2-a]azepin-6-yl)carbamoyl)benzo [b]thiophen-5-yl)methyl) phosphonic acid]",3 to 30 µM,0.1 to 1 µM,–,–
"O=C(N[C@H]1CCCC[C@H]2CC[C@@H](C(=O)N3CCC(O)(c4cc[nH]c(=O)c4)C3)N2C1=O)c1cc2cc(C(F)(F)P(=O)(O)O)ccc2s1 (stereo partly drawn) [Compound 513, (difluoro(2-(((3S,6S,10aS)-3-(3-hydroxy-3-(2-oxo-1,2-dihydropyridin-4-yl)pyrrolidine-1-carbonyl)-5-oxodecahydropyrrolo[1,2-a]azocin-6-yl)carbamoyl)benzo[b]thiophen-5-yl)methyl)phosphonic acid]",0.3 to 3 µM,0.1 to 1 µM,–,–
"O=C(N[C@H]1CCCC[C@H]2CC[C@@H](C(=O)Nc3ccc4c(c3)CCS4(=O)=O)N2C1=O)c1cc2cc(C(F)(F)P(=O)(O)O)ccc2s1 [Compound 57, ((2-(((3S,6S,10aS)-3-((1,1-dioxido-2,3-dihydrobenzo[b]thiophen-5-yl)carbamoyl)-5-oxodecahydropyrrolo [1,2-a]azocin-6-yl)carbamoyl)benzo[b]thiophen-5-yl)difluoromethyl) phosphonic acid]",–,–,0.3 to 3 µM,0.1 to 1 µM
"N#Cc1ccncc1C1CN(C(=O)[C@@H]2CC[C@@H]3CCC[C@H](NC(=O)c4cc5cc(CP(=O)(O)O)ccc5s4)C(=O)N32)C1 [Compound 520, ((2-(((3S,6S,9aS)-3-(3-(4-cyanopyridin-3-yl)azetidine-1-carbonyl)-5-oxooctahydro-1H-pyrrolo[1,2-a]azepin-6-yl)carbamoyl)benzo[b]thiophen-5-yl)methyl)phosphonic acid]",3 to 30 µM,1 to 10 µM,–,–
"O=C(N[C@H]1CCC[C@H]2CC[C@@H](C(=O)N3CC(c4cnccc4N4CC[C@@H](F)C4)C3)N2C1=O)c1cc2cc(CP(=O)(O)O)ccc2s1 [Compound 687, ((2-(((3S,6S,9aS)-3-(3-(4-((R)-3-fluoropyrrolidin-1-yl)pyridin-3-yl)azetidine-1-carbonyl)-5-oxooctahydro-1H-pyrrolo[1,2-a]azepin-6-yl)carbamoyl)benzo [b]thiophen-5-yl)methyl) phosphonic acid]",3 to 30 µM,< 0.1 µM,–,–
